Laboratory results from article PMC5218480 (PLoS ONE, 2017).

Test system: MV-4-11 cells
Experiment: Gene expression microarray analysis (Affymetrix PrimeView) and GSEA
Type: cell-based, human
Set-up: RFU PODN (11730768_x_at) / Fold change /veh PODN (11730768_x_at) / RFU LINC00158 (11744669_a_at) / Fold change /veh LINC00158 (11744669_a_at) / RFU DUSP10 (11751237_a_at) / Fold change /veh DUSP10 (11751237_a_at) / RFU ID3 (11757404_x_at) / Fold change /veh ID3 (11757404_x_at) / RFU PLEKHG5 (11737974_s_at) / Fold change /veh PLEKHG5 (11737974_s_at) / RFU LRRC4B (11730491_at) / Fold change /veh LRRC4B (11730491_at) / RFU GIMAP4 (11747438_a_at) / Fold change /veh GIMAP4 (11747438_a_at) / RFU KRT8 (11758183_x_at) / Fold change /veh KRT8 (11758183_x_at) / RFU CNN1 (11734310_a_at) / Fold change /veh CNN1 (11734310_a_at) / RFU VPS37D (11726825_at) / Fold change /veh VPS37D (11726825_at) / RFU C10orf10 (11716522_x_at) / Fold change /veh C10orf10 (11716522_x_at) / RFU KIR2DL2 /// KIR2DL4 /// KIR2DL5A /// KIR2DL5B /// KIR2DS1 /// KIR2DS2 /// KIR2DS3 /// KIR2DS4 /// KIR3DL3 /// KIR3DL3 /// KIR3DS1 (11738374_at) / Fold change /veh KIR2DL2 /// KIR2DL4 /// KIR2DL5A /// KIR2DL5B /// KIR2DS1 /// KIR2DS2 /// KIR2DS3 /// KIR2DS4 /// KIR3DL3 /// KIR3DL3 /// KIR3DS1 (11738374_at) / RFU C1QL1 (11718748_at) / Fold change /veh C1QL1 (11718748_at) / RFU TMPRSS4 (11747572_a_at) / Fold change /veh TMPRSS4 (11747572_a_at) / RFU HAMP (11756126_x_at) / Fold change /veh HAMP (11756126_x_at) / RFU RNFT2 (11725882_a_at) / Fold change /veh RNFT2 (11725882_a_at) / RFU NR4A2 (11747474_a_at) / Fold change /veh NR4A2 (11747474_a_at) / RFU ABCC12 (11746883_a_at) / Fold change /veh ABCC12 (11746883_a_at) / RFU TMEM136 (11760407_x_at) / Fold change /veh TMEM136 (11760407_x_at) / RFU CLDN22 /// WWC2 (11732394_at) / Fold change /veh CLDN22 /// WWC2 (11732394_at) / RFU HLA-DPB1 (11760878_x_at) / Fold change /veh HLA-DPB1 (11760878_x_at) / RFU SPINT1 (11716480_a_at) / Fold change /veh SPINT1 (11716480_a_at) / RFU GAP43 (11754022_s_at) / Fold change /veh GAP43 (11754022_s_at) / RFU A4GNT (11735810_at) / Fold change /veh A4GNT (11735810_at) / RFU PRB3 (11715151_x_at) / Fold change /veh PRB3 (11715151_x_at) / RFU TUBB4B (11761932_at) / Fold change /veh TUBB4B (11761932_at) / RFU CAPN14 (11732068_a_at) / Fold change /veh CAPN14 (11732068_a_at) / RFU TMCC2 (11721928_a_at) / Fold change /veh TMCC2 (11721928_a_at) / RFU IRGQ (11745062_a_at) / Fold change /veh IRGQ (11745062_a_at) / RFU FAM174B (11720279_a_at) / Fold change /veh FAM174B (11720279_a_at) / RFU TMPRSS4 (11748680_a_at) / Fold change /veh TMPRSS4 (11748680_a_at) / RFU FAM212B (11763350_a_at) / Fold change /veh FAM212B (11763350_a_at) / RFU PLEKHG5 (11743358_a_at) / Fold change /veh PLEKHG5 (11743358_a_at) / RFU ZSCAN30 (11745921_a_at) / Fold change /veh ZSCAN30 (11745921_a_at) / RFU CMKLR1 (11741424_a_at) / Fold change /veh CMKLR1 (11741424_a_at) / RFU LOC101060620 /// MAPK8IP1 (11723275_at) / Fold change /veh LOC101060620 /// MAPK8IP1 (11723275_at) / RFU SPTSSB (11747773_x_at) / Fold change /veh SPTSSB (11747773_x_at) / RFU PRSS12 (11739890_at) / Fold change /veh PRSS12 (11739890_at) / RFU BIN1 (11741810_x_at) / Fold change /veh BIN1 (11741810_x_at) / RFU WNT11 (11732464_a_at) / Fold change /veh WNT11 (11732464_a_at) / RFU C10orf10 (11716521_a_at) / Fold change /veh C10orf10 (11716521_a_at) / RFU C5orf56 (11738089_at) / Fold change /veh C5orf56 (11738089_at) / RFU CYB561 (11721691_x_at) / Fold change /veh CYB561 (11721691_x_at) / RFU ANKRD19P (11752326_a_at) / Fold change /veh ANKRD19P (11752326_a_at) / RFU OR2T12 /// OR2T33 /// OR2T8 (11738714_s_at) / Fold change /veh OR2T12 /// OR2T33 /// OR2T8 (11738714_s_at) / RFU VCAN (11748164_a_at) / Fold change /veh VCAN (11748164_a_at) / RFU JSRP1 (11732532_at) / Fold change /veh JSRP1 (11732532_at) / RFU KRTAP10-11 (11738290_x_at) / Fold change /veh KRTAP10-11 (11738290_x_at) / RFU MYO3A (11730013_a_at) / Fold change /veh MYO3A (11730013_a_at) / RFU EBF3 (11725865_a_at) / Fold change /veh EBF3 (11725865_a_at) / RFU CAMK2N1 (11719241_x_at) / Fold change /veh CAMK2N1 (11719241_x_at) / RFU C5orf56 (11738088_a_at) / Fold change /veh C5orf56 (11738088_a_at) / RFU OLFML3 (11715873_a_at) / Fold change /veh OLFML3 (11715873_a_at) / RFU LOC100653217 /// NTM (11731650_a_at) / Fold change /veh LOC100653217 /// NTM (11731650_a_at) / RFU MAPK11 (11762145_a_at) / Fold change /veh MAPK11 (11762145_a_at) / RFU FIZ1 (11724087_x_at) / Fold change /veh FIZ1 (11724087_x_at) / RFU OASL (11726364_x_at) / Fold change /veh OASL (11726364_x_at) / RFU SOX15 (11748057_x_at) / Fold change /veh SOX15 (11748057_x_at) / RFU CD79A (11719716_a_at) / Fold change /veh CD79A (11719716_a_at) / RFU HIST1H1D (11736915_at) / Fold change /veh HIST1H1D (11736915_at) / RFU CASKIN2 (11723855_a_at) / Fold change /veh CASKIN2 (11723855_a_at) / RFU LOC730098 (11760151_x_at) / Fold change /veh LOC730098 (11760151_x_at) / RFU OR4N2 (11742367_at) / Fold change /veh OR4N2 (11742367_at) / RFU PRRT2 (11749266_a_at) / Fold change /veh PRRT2 (11749266_a_at) / RFU SNX32 (11753110_a_at) / Fold change /veh SNX32 (11753110_a_at) / RFU CDHR5 (11726645_a_at) / Fold change /veh CDHR5 (11726645_a_at) / RFU RCAN1 (11760418_a_at) / Fold change /veh RCAN1 (11760418_a_at) / RFU FAM167A (11723789_a_at) / Fold change /veh FAM167A (11723789_a_at) / RFU FAM26E (11764081_at) / Fold change /veh FAM26E (11764081_at) / RFU ISYNA1 (11749810_s_at) / Fold change /veh ISYNA1 (11749810_s_at) / RFU ACY1 (11761880_at) / Fold change /veh ACY1 (11761880_at) / RFU 11764098_at / Fold change /veh 11764098_at / RFU SAMD14 (11745864_x_at) / Fold change /veh SAMD14 (11745864_x_at) / RFU NPB (11741838_a_at) / Fold change /veh NPB (11741838_a_at) / RFU TMPRSS6 (11731388_a_at) / Fold change /veh TMPRSS6 (11731388_a_at) / RFU KRTAP10-2 (11738614_at) / Fold change /veh KRTAP10-2 (11738614_at) / RFU ARHGAP8 /// PRR5-ARHGAP8 (11727945_x_at) / Fold change /veh ARHGAP8 /// PRR5-ARHGAP8 (11727945_x_at) / RFU KRTAP5-7 /// NADSYN1 (11734609_at) / Fold change /veh KRTAP5-7 /// NADSYN1 (11734609_at) / RFU RASL12 (11751679_a_at) / Fold change /veh RASL12 (11751679_a_at) / RFU CDKN2B (11736163_a_at) / Fold change /veh CDKN2B (11736163_a_at) / RFU PRF1 (11729649_at) / Fold change /veh PRF1 (11729649_at) / RFU, ZNF638 /// ZNF638-IT1 / Fold change vs veh, ZNF638 /// ZNF638-IT1 / RFU, PANK3 / Fold change vs veh, PANK3 / RFU, SH3YL1 / Fold change vs veh, SH3YL1 / RFU, ZEB2 / Fold change vs veh, ZEB2 / RFU, NRIP1 / Fold change vs veh, NRIP1 / RFU, PTTG1IP / Fold change vs veh, PTTG1IP / RFU, CAPN2 / Fold change vs veh, CAPN2 / RFU, MED14 / Fold change vs veh, MED14 / RFU, SNORA58 / Fold change vs veh, SNORA58 / RFU, C1orf63 / Fold change vs veh, C1orf63 / RFU, LRRFIP1 / Fold change vs veh, LRRFIP1 / RFU, NDUFAF7 / Fold change vs veh, NDUFAF7 / RFU, SLC12A2 / Fold change vs veh, SLC12A2 / RFU, IBTK / Fold change vs veh, IBTK / RFU, ESF1 / Fold change vs veh, ESF1 / Fold change vs veh, TMEM50B / RFU, TAOK1 / Fold change vs veh, TAOK1 / RFU, ACBD3 / Fold change vs veh, ACBD3 / RFU, TMA16 / Fold change vs veh, TMA16 / RFU, RWDD3 / Fold change vs veh, RWDD3 / RFU, BCAT1 / Fold change vs veh, BCAT1 / RFU, EDEM3 / Fold change vs veh, EDEM3 / RFU, TMEM33 / Fold change vs veh, TMEM33 / RFU, WDR75 / Fold change vs veh, WDR75 / RFU, AHCTF1 / Fold change vs veh, AHCTF1 / RFU, TFRC / Fold change vs veh, TFRC / RFU, ZDHHC17 / Fold change vs veh, ZDHHC17 / RFU, NOM1 / Fold change vs veh, NOM1 / RFU, ARL8B / Fold change vs veh, ARL8B / RFU, ZBTB11 / Fold change vs veh, ZBTB11 / RFU, TAMM41 / Fold change vs veh, TAMM41 / RFU, KIAA1704 /// LOC100996395 / Fold change vs veh, KIAA1704 /// LOC100996395 / RFU, ING1 / Fold change vs veh, ING1 / RFU, TRMT61B / Fold change vs veh, TRMT61B / RFU, FUBP3 / Fold change vs veh, FUBP3 / RFU, TP53 / Fold change vs veh, TP53 / RFU, TNKS2 / Fold change vs veh, TNKS2 / RFU, ZFP14 / Fold change vs veh, ZFP14 / RFU, ACTR2 / Fold change vs veh, ACTR2 / RFU, PPP3R1 / Fold change vs veh, PPP3R1 / RFU, PIK3R1 / Fold change vs veh, PIK3R1 / RFU, HNRNPA1 / Fold change vs veh, HNRNPA1 / RFU, RNF170 / Fold change vs veh, RNF170 / RFU, ZNF28 / Fold change vs veh, ZNF28 / RFU, RNGTT / Fold change vs veh, RNGTT / RFU, OGT / Fold change vs veh, OGT / RFU, BRD1 / Fold change vs veh, BRD1 / RFU, MARS / Fold change vs veh, MARS / RFU, ZNF655 / Fold change vs veh, ZNF655 / RFU, FAHD1 / Fold change vs veh, FAHD1 / RFU, BDP1 / Fold change vs veh, BDP1 / RFU, LRRCC1 / Fold change vs veh, LRRCC1 / RFU, ARID1A / Fold change vs veh, ARID1A / RFU, ZNF146 / Fold change vs veh, ZNF146 / RFU, ZNF330 / Fold change vs veh, ZNF330 / RFU, GPN3 / Fold change vs veh, GPN3 / RFU, C9orf123 / Fold change vs veh, C9orf123 / RFU, N4BP2L2 / Fold change vs veh, N4BP2L2 / RFU, ARFIP1 / Fold change vs veh, ARFIP1 / RFU, FAM179B / Fold change vs veh, FAM179B / RFU, BCL10 / Fold change vs veh, BCL10 / RFU, UHRF1BP1L / Fold change vs veh, UHRF1BP1L / RFU, BET1 / Fold change vs veh, BET1 / RFU, CNOT2 / Fold change vs veh, CNOT2 / RFU, ZNF268 / Fold change vs veh, ZNF268 / Fold change vs veh, ZNF507 / RFU, DGCR2 / Fold change vs veh, DGCR2 / RFU, WDSUB1 / Fold change vs veh, WDSUB1 / Fold change vs veh, HSP90B1 /// MIR3652 / RFU, ADSS / Fold change vs veh, ADSS / RFU, GK / Fold change vs veh, GK / RFU, ZNF148 / Fold change vs veh, ZNF148 / RFU, TAF9 / Fold change vs veh, TAF9 / RFU, SLC1A5 / Fold change vs veh, SLC1A5 / RFU, SLMO2 / Fold change vs veh, SLMO2 / RFU, ABCC4 / Fold change vs veh, ABCC4 / RFU, LOC101060439 /// RAP1B / Fold change vs veh, LOC101060439 /// RAP1B / RFU, RFX7 / Fold change vs veh, RFX7 / RFU, GTPBP10 / Fold change vs veh, GTPBP10 / RFU, CNEP1R1 / Fold change vs veh, CNEP1R1 / RFU, BIVM-ERCC5 /// ERCC5 / Fold change vs veh, BIVM-ERCC5 /// ERCC5 / RFU, ILF3 / Fold change vs veh, ILF3 / RFU 11762660_at / Fold change /veh 11762660_at / RFU VCAN (11757783_s_at) / Fold change /veh VCAN (11757783_s_at) / RFU DDX43 (11728927_at) / Fold change /veh DDX43 (11728927_at) / RFU KRT8 (11758188_x_at) / Fold change /veh KRT8 (11758188_x_at) / RFU NKD1 (11759106_at) / Fold change /veh NKD1 (11759106_at) / RFU SRD5A1 (11742802_a_at) / Fold change /veh SRD5A1 (11742802_a_at) / RFU TPSAB1 /// TPSB2 (11721975_s_at) / Fold change /veh TPSAB1 /// TPSB2 (11721975_s_at) / RFU GSTM3 (11746129_a_at) / Fold change /veh GSTM3 (11746129_a_at) / RFU IL23R (11737362_x_at) / Fold change /veh IL23R (11737362_x_at) / RFU TMEM51 (11727254_a_at) / Fold change /veh TMEM51 (11727254_a_at) / RFU PIWIL2 (11732686_x_at) / Fold change /veh PIWIL2 (11732686_x_at) / RFU ORM1 (11744905_x_at) / Fold change /veh ORM1 (11744905_x_at) / RFU CCDC152 (11743942_at) / Fold change /veh CCDC152 (11743942_at) / RFU ECM1 (11717891_a_at) / Fold change /veh ECM1 (11717891_a_at) / RFU IL23R (11748794_a_at) / Fold change /veh IL23R (11748794_a_at) / RFU TNFAIP8L3 (11732012_x_at) / Fold change /veh TNFAIP8L3 (11732012_x_at) / RFU MBOAT4 (11741988_at) / Fold change /veh MBOAT4 (11741988_at) / RFU 11764193_at / Fold change /veh 11764193_at / RFU TMEM53 (11763286_at) / Fold change /veh TMEM53 (11763286_at) / RFU MAGEB2 (11727129_at) / Fold change /veh MAGEB2 (11727129_at) / RFU TMEM200A (11744735_a_at) / Fold change /veh TMEM200A (11744735_a_at) / RFU CCDC152 (11751479_a_at) / Fold change /veh CCDC152 (11751479_a_at) / RFU FAM211A (11726209_a_at) / Fold change /veh FAM211A (11726209_a_at) / RFU RGS16 (11746705_a_at) / Fold change /veh RGS16 (11746705_a_at) / RFU VCAN (11755009_s_at) / Fold change /veh VCAN (11755009_s_at) / RFU RHOB (11743442_s_at) / Fold change /veh RHOB (11743442_s_at) / RFU RGS16 (11720943_a_at) / Fold change /veh RGS16 (11720943_a_at) / RFU RGS16 (11720944_at) / Fold change /veh RGS16 (11720944_at) / RFU, VPS4B / Fold change vs veh, VPS4B / RFU, CREB1 / Fold change vs veh, CREB1 / RFU, DNAJC13 / Fold change vs veh, DNAJC13 / RFU, GNAQ / Fold change vs veh, GNAQ / RFU, CDK5R1 / Fold change vs veh, CDK5R1 / RFU, ZRANB3 / Fold change vs veh, ZRANB3 / RFU, CUL4A / Fold change vs veh, CUL4A / RFU, CCNY / Fold change vs veh, CCNY / RFU, UFL1 / Fold change vs veh, UFL1 / RFU, COG3 / Fold change vs veh, COG3 / RFU, DIAPH2 / Fold change vs veh, DIAPH2 / RFU, SKA2 / Fold change vs veh, SKA2 / RFU, AFF3 / Fold change vs veh, AFF3 / RFU, LMF1 / Fold change vs veh, LMF1 / RFU, IPO11 / Fold change vs veh, IPO11 / RFU, DFFB / Fold change vs veh, DFFB / RFU, FOXP1 / Fold change vs veh, FOXP1 / RFU, CARD8 / Fold change vs veh, CARD8 / RFU, STRN3 / Fold change vs veh, STRN3 / RFU, ADK / Fold change vs veh, ADK / RFU, RASSF2 / Fold change vs veh, RASSF2 / RFU, WIPF1 / Fold change vs veh, WIPF1 / RFU, LARP1B / Fold change vs veh, LARP1B / RFU, RASA1 / Fold change vs veh, RASA1 / RFU, RB1 / Fold change vs veh, RB1 / RFU, PPFIA1 / Fold change vs veh, PPFIA1 / RFU, MAT2A / Fold change vs veh, MAT2A / RFU, CCT5 / Fold change vs veh, CCT5 / RFU, WDR92 / Fold change vs veh, WDR92 / RFU, CUX1 / Fold change vs veh, CUX1 / RFU, TTC7A / Fold change vs veh, TTC7A / RFU, TMEM135 / Fold change vs veh, TMEM135 / RFU, DEPTOR / Fold change vs veh, DEPTOR / RFU, CPM / Fold change vs veh, CPM / RFU, DNAJB6 / Fold change vs veh, DNAJB6 / RFU, CACNA2D3 / Fold change vs veh, CACNA2D3 / RFU, DTX4 / Fold change vs veh, DTX4 / RFU, TFCP2 / Fold change vs veh, TFCP2 / RFU, GMCL1 /// GMCL1P1 / Fold change vs veh, GMCL1 /// GMCL1P1 / RFU, AEBP2 / Fold change vs veh, AEBP2 / RFU, SNHG1 /// SNORD22 /// SNORD25 /// SNORD26 /// SNORD27 /// SNORD28 /// SNORD29 /// SNORD31 / Fold change vs veh, SNHG1 /// SNORD22 /// SNORD25 /// SNORD26 /// SNORD27 /// SNORD28 /// SNORD29 /// SNORD31 / Fold change (Aza/veh), C12orf56 (ProbeSet 11735607_a_at) / Fold change (ACY-1035/veh), C12orf56 (ProbeSet 11735607_a_at) / Fold change (Aza/veh), FGFR1OP (ProbeSet 11751329_s_at) / Fold change (ACY-1035/veh), FGFR1OP (ProbeSet 11751329_s_at) / Fold change (Aza/veh), VPS36 (ProbeSet 11739960_a_at) / Fold change (ACY-1035/veh), VPS36 (ProbeSet 11739960_a_at) / RFU SYPL1 (11715823_x_at) / Fold change /veh SYPL1 (11715823_x_at) / RFU IGFBP7 (11715501_s_at) / Fold change /veh IGFBP7 (11715501_s_at) / RFU REEP3 (11722064_at) / Fold change /veh REEP3 (11722064_at) / RFU IGLL1 (11728026_x_at) / Fold change /veh IGLL1 (11728026_x_at): dose or concentration left out as unconfirmed
Settings: MV-4-11 cells, 48 hours

SMILES: Nc1ccc(-c2cccs2)cc1NC(=O)c1ccc2c(c1)cc(C1CC1)n2CCN1CCOCC1 [ACY-1035]
- RFU RHOB (11743442_s_at): 104.18 RFU
